Values after ≈ are worked out from the molar mass of the structure shown. Where two headings read alike, the source gives them in different places.

The test system of series [1] is translation. Description: In vitro translation assay (DHFR with stop codon, no tmRNA-SmpB). The conditions noted are these: DMSO control 100 ± 1.
Series [2] concerns trans-translation. Description: In vitro trans-translation assay (tagging of DHFR from nonstop template with tmRNA-SmpB). The conditions noted are these: 10 µM compound; percentage of total DHFR in tagged DHFR band; DMSO control 90 ± 7.
Series [3] relates to EF-Tu•GTP (Escherichia coli MG1655 (pCA24N tufA, ASKA clone JW3301)). Description: filter binding. The conditions noted are these: 10 mM Mg2+, 44 mM KH2PO4, 6 mM K2HPO4, 10 mM MgCl2, 50 µg/mL BSA, pH 5.5 (RNA-binding mix; 34 µL mix + 16 µL EF-Tu), 0.1 nM RNA, 15 s at room temperature.
Series [4] has as its target EF-Tu•GTP E378A (Escherichia coli, UniProt P0CE47, E379A). Description: MST binding assay, EF-Tu E378A mutant.
In series [5] the test system is Francisella tularensis. The settings on record: compared with tetracycline; cited from earlier work.
Series [6] has as its system E. coli ∆tolC. Description: microbe, parasite or virus in culture. The format is cell-based. The settings on record: Escherichia coli.
In series [7] the test system is B. anthracis vegetative cells, germinants, and spores. The conditions noted are these: in vitro and after ex vivo infection of macrophages; cited from earlier work.
For series [8], the target named is EF-Tu•GDP (Escherichia coli, UniProt P0CE47). Description: MST binding assay, EF-Tu•GDP. Details: species or system E. coli.
Series [9] addresses EF-Tu•GTP H319A (Escherichia coli, UniProt P0CE47, H320A). Description: MST binding assay, EF-Tu H319A mutant.
Series [10] has as its target EF-Tu•GTP R318K (Escherichia coli, UniProt P0CE47, R319K). Description: MST binding assay, EF-Tu R318K mutant.
Series [11] has as its target EF-Tu•GTP R318N (Escherichia coli, UniProt P0CE47, R319N). Description: MST binding assay, EF-Tu R318N mutant.
Series [12] deals with E. coli EF-Tu•GTP (Escherichia coli, UniProt P0CE47). Description: biochemical. Type of series: binding.
The mark [13] stands for this setting: no KKL-55, 3'-alanylated with AlaRS.

Consider `O=C(CCCCC1SCC2NC(=O)NC21)NCCn1nnnc1NC(=O)c1cccc(Cl)c1` (centres unmarked) [KKL-201], for which the “translation efficiency ± SD” value in series [1] (10 µM compound) turned out to be 99 ± 6%. In [2], the “tagging efficiency ± SD” value is reported as 42 ± 2%.
For the compound `O=C(N[C@H](CO)[C@H](O)c1ccc([N+](=O)[O-])cc1)C(Cl)Cl` [chlor, chloramphenicol, reference compound], in series [1] (100 µM compound), the “translation efficiency ± SD” value amounted to 5 ± 3%.
Regarding Ala-tRNAAla, in series [3] (setting [13]), the Kd (usually the concentration at which binding is half-saturated) turned out to be 280 nM.
Turning to Ala-tmRNA, the Kd in series [3] (25 µM KKL-55 (substantially reduced, no saturation), 3'-alanylated with AlaRS) was greater than 10000 nM; in [3] (setting [13]), 750 nM.
On to `CCCn1nnnc1NC(=O)c1cccc(Cl)c1` [KKL-55], for which the Kd was 2600 ± 200 nM in series [4]; “little effect on binding affinity” in series [4] (MST, E378A EF-Tu•GTP); 1600 ± 20 nM in series [8]; 2400 ± 100 nM in [9]; “little impact on binding” in series [9] (MST, H319A EF-Tu•GTP); 2600 nM in series [10]. For the same compound, the Kd is greater than 20000 nM in [11] and 2000 nM in [12]. Moreover, the MIC entry is “comparable to that of tetracycline” in series [5] and 2.3 µM (≈ 0.611 µg/mL) in [6]. The bactericidal activity result in series [7] is “bactericidal”. Further, the “translation efficiency ± SD” value in series [1] (100 µM compound) was determined as 102 ± 2%. The “tagging efficiency ± SD” value in series [2] is given as 30 ± 2%.
With `O=C(Nc1nnc(-c2ccc(F)cc2)o1)c1ccc(Cl)cc1` [KKL-35, reference compound], the “binding to EF-Tu” value in [12] is “No binding”.

The values are drawn from publication PMC10653918, “Antibiotic that inhibits trans-translation blocks binding of EF-Tu to tmRNA but not to tRNA” (mBio, 2023).
